Our source for the Activity values is ChEMBL document CHEMBL5370693, “Kinases Controlling Stability of the Oncogenic MYCN Protein” (ACS Med Chem Lett, 2023).

Active and inactive are the calls of the source. No cut-off for these calls is given here.

Assay [1] deals with Serine/threonine-protein kinase 38-like (Homo sapiens) (UniProt Q9Y2H1). The assay can be described thus: Binding affinity to STK38L in human SKNBE2 cells assessed as effect on thermal stability at 49 degC incubated for 3 hrs by CETSA assay. In kind it is cell-based.
The subject of assay [2] is Phosphatidylinositol 4,5-bisphosphate 3-kinase catalytic subunit alpha isoform (Homo sapiens), P42336 [E545K]. The assay can be described thus: Inhibition of PIK3CA E545K mutant (unknown origin) assessed as remaining activity at 15 uM incubated for 1 hr by KINOMEscan competitive binding assay relative to control.
Assay [3] deals with T1, Phosphatidylinositol 4,5-bisphosphate 3-kinase catalytic subunit delta isoform (Homo sapiens) (UniProt O00329).
T1 sequence (whole entry): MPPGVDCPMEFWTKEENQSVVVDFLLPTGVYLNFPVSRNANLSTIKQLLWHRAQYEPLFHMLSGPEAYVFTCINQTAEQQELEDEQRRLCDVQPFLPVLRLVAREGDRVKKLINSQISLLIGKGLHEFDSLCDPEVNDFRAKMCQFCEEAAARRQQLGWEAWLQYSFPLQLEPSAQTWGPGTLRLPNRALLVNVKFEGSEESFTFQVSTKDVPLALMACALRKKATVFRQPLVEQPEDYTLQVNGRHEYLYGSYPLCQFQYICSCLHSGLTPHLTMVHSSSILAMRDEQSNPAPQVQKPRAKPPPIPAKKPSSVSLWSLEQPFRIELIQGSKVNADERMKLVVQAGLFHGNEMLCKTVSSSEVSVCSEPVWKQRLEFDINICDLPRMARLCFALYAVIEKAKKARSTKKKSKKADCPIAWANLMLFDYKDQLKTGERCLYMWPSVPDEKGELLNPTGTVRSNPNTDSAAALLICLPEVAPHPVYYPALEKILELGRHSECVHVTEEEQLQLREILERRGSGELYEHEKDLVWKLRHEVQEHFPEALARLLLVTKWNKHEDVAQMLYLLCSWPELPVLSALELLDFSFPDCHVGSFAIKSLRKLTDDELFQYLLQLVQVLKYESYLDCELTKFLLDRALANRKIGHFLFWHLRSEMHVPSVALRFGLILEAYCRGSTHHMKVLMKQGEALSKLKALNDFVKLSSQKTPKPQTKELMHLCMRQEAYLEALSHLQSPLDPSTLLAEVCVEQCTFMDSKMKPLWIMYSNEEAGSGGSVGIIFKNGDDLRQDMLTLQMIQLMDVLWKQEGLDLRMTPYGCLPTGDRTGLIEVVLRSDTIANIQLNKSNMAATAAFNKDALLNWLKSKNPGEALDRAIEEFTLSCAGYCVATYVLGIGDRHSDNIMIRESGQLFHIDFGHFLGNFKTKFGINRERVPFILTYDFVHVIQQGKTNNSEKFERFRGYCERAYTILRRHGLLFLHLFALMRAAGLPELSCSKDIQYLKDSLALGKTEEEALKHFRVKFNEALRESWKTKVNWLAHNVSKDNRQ
The assay can be described thus: Inhibition of PIK3CD (unknown origin) assessed as remaining activity at 15 uM incubated for 1 hr by KINOMEscan competitive binding assay relative to control.

Assay [4] deals with Phosphatidylinositol 4,5-bisphosphate 3-kinase catalytic subunit alpha isoform (Homo sapiens), P42336 [Q546K]. The assay can be described thus: Inhibition of PIK3CA Q546K mutant (unknown origin) assessed as remaining activity at 15 uM incubated for 1 hr by KINOMEscan competitive binding assay relative to control.
Assay [5] deals with Phosphatidylinositol 4,5-bisphosphate 3-kinase catalytic subunit alpha isoform (Homo sapiens), P42336 [M1043I]. The assay can be described thus: Inhibition of PIK3CA M1043I mutant (unknown origin) assessed as remaining activity at 15 uM incubated for 1 hr by KINOMEscan competitive binding assay relative to control.
Assay [6] has as its target Phosphatidylinositol 4,5-bisphosphate 3-kinase catalytic subunit gamma isoform (Homo sapiens) (UniProt P48736). The assay can be described thus: Inhibition of PIK3CG (unknown origin) assessed as remaining activity at 15 uM incubated for 1 hr by KINOMEscan competitive binding assay relative to control.
Assay [7] relates to Phosphatidylinositol 4,5-bisphosphate 3-kinase catalytic subunit alpha isoform (Homo sapiens), P42336 [C420R]. The assay can be described thus: Inhibition of PIK3CA C420R mutant (unknown origin) assessed as remaining activity at 15 uM incubated for 1 hr by KINOMEscan competitive binding assay relative to control.
In assay [8] the test system is Phosphatidylinositol 4,5-bisphosphate 3-kinase catalytic subunit alpha isoform (Homo sapiens), P42336 [H1047L]. The assay can be described thus: Inhibition of PIK3CA H1047L mutant (unknown origin) assessed as remaining activity at 15 uM incubated for 1 hr by KINOMEscan competitive binding assay relative to control.
Assay [9] deals with Phosphatidylinositol 4,5-bisphosphate 3-kinase catalytic subunit alpha isoform (Homo sapiens), P42336 [E542K]. The assay can be described thus: Inhibition of PIK3CA E542K mutant (unknown origin) assessed as remaining activity at 15 uM incubated for 1 hr by KINOMEscan competitive binding assay relative to control.
Assay [10] addresses Casein kinase II subunit alpha' (Homo sapiens) (UniProt P19784). The assay can be described thus: Inhibition of CSNK2A2 (unknown origin) assessed as remaining activity at 15 uM incubated for 1 hr by KINOMEscan competitive binding assay relative to control.
Assay [11] concerns the target Serine/threonine-protein kinase 38-like (Homo sapiens) (UniProt Q9Y2H1). The assay can be described thus: Inhibition of NDR2 (unknown origin) assessed as remaining activity at 15 uM incubated for 1 hr by KINOMEscan competitive binding assay relative to control.
Assay [12] addresses Casein kinase II subunit alpha (Homo sapiens) (UniProt P68400). The assay can be described thus: Inhibition of CSNK2A1 (unknown origin) assessed as remaining activity at 15 uM incubated for 1 hr by KINOMEscan competitive binding assay relative to control.
In assay [13] the target is T2, Serine/threonine-protein kinase Chk1 (Homo sapiens) (UniProt O14757).
T2 sequence (whole entry): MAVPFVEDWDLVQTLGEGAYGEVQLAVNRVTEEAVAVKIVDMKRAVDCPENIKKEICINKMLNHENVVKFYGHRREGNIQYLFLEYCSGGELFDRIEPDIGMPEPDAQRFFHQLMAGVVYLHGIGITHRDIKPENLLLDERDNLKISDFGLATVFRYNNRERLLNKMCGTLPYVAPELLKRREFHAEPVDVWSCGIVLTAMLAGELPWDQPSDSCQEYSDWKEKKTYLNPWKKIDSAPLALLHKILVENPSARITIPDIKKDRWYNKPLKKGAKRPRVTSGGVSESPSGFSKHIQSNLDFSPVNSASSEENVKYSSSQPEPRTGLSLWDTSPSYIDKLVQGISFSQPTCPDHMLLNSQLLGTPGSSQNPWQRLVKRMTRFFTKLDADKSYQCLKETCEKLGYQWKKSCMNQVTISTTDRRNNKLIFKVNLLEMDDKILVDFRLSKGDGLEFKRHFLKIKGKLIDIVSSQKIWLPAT
The assay can be described thus: Inhibition of CHEK1 (unknown origin) assessed as remaining activity at 15 uM incubated for 1 hr by KINOMEscan competitive binding assay relative to control.

The test system of assay [14] is Phosphatidylinositol 4,5-bisphosphate 3-kinase catalytic subunit alpha isoform (Homo sapiens), P42336 [I800L]. The assay can be described thus: Inhibition of PIK3CA I800L mutant (unknown origin) assessed as remaining activity at 15 uM incubated for 1 hr by KINOMEscan competitive binding assay relative to control.

For the molecule `CC(C)=CCc1c2c(c3occ(-c4ccc(O)c(O)c4)c(=O)c3c1O)C=CC(C)(C)O2`, in assay [1], the outcome was inactive.
Turning to `CC(C)CCOc1ccc2c(=O)c(-c3ccc(O)c(O)c3)coc2c1`, the Activity in [2] turned out to be 79%; in assay [3] it was 97%; in assay [4] it was 96%; in assay [5], 77%; in assay [6], 95%; in [7], 94%. For the same molecule, the Activity was determined as 80% in assay [8]; 98% in assay [9]; 100% in assay [10]; 17% in assay [11]; 44% in assay [12]; 71% in [13]. Moreover, in assay [14], the Activity was 91%. Further, in assay [1], the result was inactive.
As to `CC(C)CC(=O)Oc1ccc2occ(-c3ccc(O)c(O)c3)c(=O)c2c1`, the Activity in [2] was found to be 66%; in assay [3], 93%; in assay [4], 84%; in [5], 85%; in assay [6] it was 86%; in [7] it was 87%. The Activity stood at 69% in assay [8]; 93% in [9]; 52% in assay [10]; 48% in [11]; 14% in [12]; 88% in assay [13]. Further, the Activity in assay [14] was 98%.
